# Measured values: PMC12040169 (PLOS Biology, 2025)
# Test: in vitro
# Settings: human, hela cells, % viability
row,SMILES,"viability at 28.5 h, 10 µM"
1,CCC#CC(=O)Nc1cncc(OC2CCNCC2)n1 [CBK026731T],93%
2,CSc1nc(NC(=O)C2CCCO2)cc(N2CCNCC2)n1 (centres unmarked) [CBK026740T],90.5%
3,CN1CCN(c2n[nH]c(N)n2)CC1 [CBK026743],90.5%
4,CCOC(=O)c1sc(Cl)nc1C(F)(F)F [CBK026746],103%
5,O=C(NCCN1CCOCC1)C1CC2CCC1C2 (centres unmarked) [CBK026764],115%
6,CCN(CC(O)COc1cc(C)c(Cl)c(C)c1)S(=O)(=O)O (centres unmarked) [CBK026767N],106%
7,COC(=O)n1c(=O)oc2ccc(Cl)cc21 [CBK026774],101%
8,CC(NC(=O)N(Cc1c[nH]c(-c2ccccc2)n1)CC(C)(C)CN)c1cccc2ccccc12 (centres unmarked) [CBK026801C],96.3%
9,CC(C)(CN)CN(Cc1ccccc1C(F)(F)F)C(=O)Nc1ccc(Cl)cc1Cl [CBK026832C],93.5%
10,O=C(O)c1cnc(Cl)c(Br)c1 [CBK026874],83.7%
11,O=C1CSC(Nc2nc(-c3ccccc3)cs2)=N1 [CBK026880],104%
12,CC(C)(C)C1CCC(OC(=O)CCC(=O)O)CC1 (centres unmarked) [CBK026882],105%
13,O=S(=O)(CCSc1nc2ccccc2s1)c1nc2ccccc2s1 [CBK026908],92.4%
14,Brc1ccc(-c2nc(CSc3nnnn3C3CCCCC3)no2)cc1 [CBK026913],110%
15,CC1CCc2nc(NS(=O)(=O)c3ccccc3)sc2C1 (centres unmarked) [CBK026915],110%
16,COC(=O)Nc1nc2cc(F)c(Cl)cc2[nH]1 [CBK026927],102%
17,CC(Oc1ccccc1Br)c1nc(-c2nonc2N)no1 (centres unmarked) [CBK026982],86.2%
18,CCOC(=O)C1CCN(Cc2cccs2)CC1 [CBK026999],86.3%
19,CN(C)CC(O)CN1C(=O)NC(C)(C)C1=O (centres unmarked) [CBK027078],114%
20,O=c1[nH][nH]c2nc(O)cc(C(F)(F)F)c12 [CBK027081],109%
21,OC1CSc2nc(-c3cnccn3)nn2C1 (centres unmarked) [CBK027096],97.8%
22,Nc1nc(N)c2nc(C3OCCO3)cnc2n1 [CBK027115],114%
23,CNC(C)Cc1ccccc1Sc1ccccc1 (centres unmarked) [CBK027167G],98%
24,CN1C(c2ccccc2)=NO[C@]1(C)c1ccccc1 [CBK027170],90%
25,Brc1cnn(-c2ccccc2)c1 [CBK027172],87.6%

row,SMILES,"viability at 28.5 h, 10 µM"
1,CCOC(=O)C1=C(C)N(CCO)C(=O)NC1c1ccccc1Br (centres unmarked) [CBK027192],104%
2,CCOC(NC(=O)Nc1ccc(Br)cc1)(C(F)(F)F)C(F)(F)F [CBK027208],91.2%
3,Cc1n[nH]c(C)c1CCCCCOc1ccccc1 [CBK027211C],84.3%
4,CC1(C(=O)O)CCCC2(C)c3cc(O)ccc3CCC12 (centres unmarked) [CBK027214],97.4%
5,Cc1ccc(S(=O)(=O)Nn2cnnc2)cc1 [CBK027263],108%
6,CSc1nsc(NC(=O)Nc2ccccc2)n1 [CBK027286],97.9%
7,c1csc(CN2CCNCC2)c1 [CBK027324],105%
8,O=C(Nc1cccc(C(F)(F)F)c1)c1nc[nH]n1 [CBK027341],89.4%
9,CCN(CC)c1nc2n(c(=O)n1)CCN2CC [CBK027342],94.9%
10,CC(C)=NNC(=O)Nc1nonc1N [CBK027368],99.2%
11,CCOc1nc(NCCC2=CCCCC2)nc(OCC)n1 [CBK027387],86.9%
12,Nc1nc(-c2ccccc2I)n[nH]1 [CBK027413],93.4%
13,Cc1c(NC(=O)Nc2ccccc2)sc(=S)n1C [CBK027434],90.6%
14,CCOc1cc(C(=S)N2CCOCC2)ccc1OCc1ccccc1 [CBK027466],99.1%
15,O=C(CSc1nnc(COc2ccc(Br)cc2)o1)OC1CCCCC1 [CBK027482],88.8%
16,Cc1c(NC(=O)Nc2ccc(Cl)cc2)sc(=S)n1C [CBK027495],93.4%
17,CCN(CC)C(=O)N1CCN(CCC#N)CC1 [CBK027538],94.9%
18,Clc1ccc(-c2c[nH]cn2)cc1 [CBK027542],111%
19,CN(CCOC(=O)c1cccnc1)C(C)(C)C [CBK027543C],88.8%
20,Cc1cc2nc(SCCO)[nH]c2cc1C [CBK027546],94.1%
21,Oc1ccccc1C(=S)N1CCCCC1 [CBK027552],92.8%
22,NC(=O)c1c[nH]c2ccccc12 [CBK027556],80.7%
23,CC(C)(C)c1ccc(OCC(=O)Nn2cnnc2)cc1 [CBK027576],90.3%
24,CC(C)OC(=O)c1nnn(-c2nonc2N)c1CN1CCCCCC1 [CBK027601],94%
25,COc1ccc(Nc2nc(Cl)nc(NCCN3CCOCC3)n2)cc1 [CBK027610],104%

row,SMILES,"viability at 28.5 h, 10 µM"
1,Brc1ccc(CN2CCN(Cc3c[nH]c4ccccc34)CC2)cc1 [CBK027622],85.4%
2,Cc1nc(C)c(C(=O)c2coc3ccc(O)cc23)o1 [CBK027631],94.1%
3,O=C(CN1CCCCC1)Nc1cccc(-n2cnnn2)c1 [CBK027661],105%
4,Cn1c(=O)c(-c2nc3ccccc3[nH]2)c(O)c2ccccc21 [CBK027678],92.7%
5,c1ccc(SCCN2CCOCC2)cc1 [CBK027679],97.8%
6,O=c1nc(C(F)(F)F)n2ccccc2n1 [CBK027683],97.2%
7,Brc1ccc(-n2cnnn2)cc1 [CBK027696],110%
8,NCC1OCCc2ccccc21 (centres unmarked) [CBK027717],108%
9,CCCCCC1=NN(C(=O)OCC)C(O)(C(F)(F)F)C1 (centres unmarked) [CBK027739],94.9%
10,Cc1ccc(SCc2nc3ncccn3c2Br)cc1 [CBK027744],85.2%
11,CC(=O)NC(O)C(=O)c1cccs1 (centres unmarked) [CBK027756],111%
12,S=c1[nH]cnc2sc3c(c12)CCCC3 [CBK027787],73.7%
13,Cc1n[nH]c(C)c1Sc1nnc(O)nc1O [CBK027833],87.2%
14,N#Cc1ccccc1CSc1ncn[nH]1 [CBK027835],95.1%
15,CCCCOC(=O)CCNc1n[nH]c(=O)[nH]c1=O [CBK027838],97.3%
16,CCOC(=O)Nc1ccsc1C(=O)OC [CBK027880],88.6%
17,O=C(O)c1cc(-c2ccco2)nc2ccccc12 [CBK027882],98.3%
18,Cc1nnc(N/N=C\c2c(Cl)cccc2Cl)[nH]c1=O [CBK027921],110%
19,C(=N\N1CCOCC1)/c1cccs1 [CBK027942],96.9%
20,CC(NCC(O)COCc1ccc(Cl)cc1)c1ccccc1 (centres unmarked) [CBK027972C],87.5%
21,O=C(O)C1CCC(CNS(=O)(=O)c2ccc(Br)cc2)CC1 (centres unmarked) [CBK027994],86.1%
22,FC(F)Oc1ccc(NC(=S)NCCN2CCOCC2)cc1 [CBK028000],87.7%
23,CN(C)C(c1ccccc1)c1nnnn1C1CCCCC1 (centres unmarked) [CBK028032],105%
24,CCCN(c1nc(C)c(Br)c(OC)n1)S(=O)(=O)c1ccc(C)cc1 [CBK028072],105%
25,CNc1nc(N)nc(OCC(F)(F)F)n1 [CBK028082],89.4%

row,SMILES,"viability at 28.5 h, 10 µM"
1,CC(C)C(=O)N1N=C2CCCCC2C1(O)C(F)(F)F (centres unmarked) [CBK028091],93.2%
2,CCOC(=O)c1c(C)nc(-c2ccccc2)nc1NC(=O)C(C)C [CBK028118],90.1%
3,COc1ccc(C(CNCC(O)COc2cccc3c2CCCC3)c2ccccc2)cc1 (centres unmarked) [CBK028144],105%
4,CC#CC1CCCC2N(c3ccccc3)CCN12 (centres unmarked) [CBK028191],119%
5,CCOC(=O)Nc1ccc2ccccc2n1 [CBK028207],87.3%
6,O=C(CCCc1ccccc1)Nc1cccnc1N1CCNCC1 [CBK028256T],93.1%
7,O=C(Cc1c[nH]c2ccccc12)Nc1cccnc1N1CCNCC1 [CBK028265T],105%
8,Cn1cc(CC(=O)Nc2ccc(N3CCNCC3)nc2)c2ccccc21 [CBK028275T],72.1%
9,O=C(COc1ccccc1)Nc1ccccc1N1CCNCC1 [CBK028279T],108%
10,O=C(Nc1ccccc1N1CCNCC1)C1(c2ccccc2)CCCCC1 [CBK028281T],99.9%
11,COc1ccc(CCCC(=O)Nc2ccccc2N2CCNCC2)cc1OC [CBK028283T],107%
12,O=C(CCS(=O)(=O)c1ccccc1)Nc1ccccc1N1CCNCC1 [CBK028285T],99.8%
13,O=C(Cc1c[nH]c2ccccc12)Nc1ccccc1N1CCNCC1 [CBK028288T],98.1%
14,O=C(CCCOc1ccccc1)Nc1cccc(N2CCNCC2)c1 [CBK028290T],95.4%
15,O=C(CCS(=O)(=O)c1ccccc1)NCc1ccccc1OC1CCNC1 (centres unmarked) [CBK028296T],95.9%
16,CN(CC(=O)NCc1ccccc1OC1CCNC1)C(=O)c1ccccc1 (centres unmarked) [CBK028298T],96.9%
17,CC(C)(C)CNc1ccc(S(=O)(=O)N2CCOC2=O)cc1 [CBK028347],113%
18,CC1CCN(C(=O)C2CCCCC2C(=O)O)CC1 (centres unmarked) [CBK028392],107%
19,COc1ccc(CCCC(=O)Nc2ccc(N3CCNCC3)c3ccccc23)cc1OC [CBK028406T],105%
20,O=C(CCS(=O)(=O)c1ccccc1)Nc1ccc(N2CCNCC2)c2ccccc12 [CBK028408T],92.6%
21,O=C(Nc1ccc(N2CCNCC2)c2ccccc12)c1ccccc1 [CBK028412T],92.8%
22,CN(CC(=O)Nc1cc2ccccc2c(N2CCNCC2)n1)C(=O)c1ccccc1 [CBK028421T],93%
23,O=C(COc1ccccc1)NCc1ccc(OC2CCNCC2)cc1 [CBK028425T],98.2%
24,O=C(CCCOc1ccccc1)NCc1ccc(OC2CCNCC2)cc1 [CBK028427T],92.1%
25,Cn1cc(CC(=O)NCc2ccc(OC3CCNCC3)cc2)c2ccccc21 [CBK028430T],92.8%

# Same assay, conditions: human, hela cells, % viability, bulk resorufin, single well
row,SMILES,"viability at 28.5 h, 10 µM"
1,CNCCc1csc2ccccc12 [CBK027127C],118%
